Tests used:
recombinant human HDAC2 = target: T1, recombinant human HDAC2 (Homo sapiens, UniProt Q92769); assay: Fluorogenic HDAC inhibition assay, HDAC2 (Boc-L-Lys(Ac)-AMC substrate); format: biochemical; settings: for IC50: maximum preincubation time 24 h
T1 construct: purchased BPS Bioscience
Protocol: (§1) 10 μL of the enzyme stock was added to 30 μL of the probes and preincubated for different preincubation times.

[1] = target: recombinant His-tagged HDAC2 (Homo sapiens, UniProt Q92769); assay: Photoaffinity labeling (photocrosslinking) of HDAC2 with TSA competition, biotin tag, streptavidin-HRP western blot; format: binding; settings: probe 25 μM, HDAC2 1.25 μM, Trichostatin A 125 μM (5-fold molar excess), 24 h, 254 nm UV
Protocol: Photoaffinity labeling studies were conducted with the probes using commercially available recombinant His-tagged HDAC2. […] The loading was confirmed by using nickel-HRP, which recognized the His-tag of the recombinant HDAC2 protein.
500 μM of DBCO-PEG4-biotin conjugate (Click Chemistry tools) in photolabeling buffer was added to initiate the [3+2] cycloaddition reaction with HDAC2-probe adduct. The cycloaddition reaction was carried out for 3 h at room temperature. Western blotting was done with 1.5 ug of purified protein with 5× loading buffer containing 10% SDS, 0.05% bromophenol blue, 50% glycerol, and β-mercaptoethanol. […] After electrophoresis, protein was transferred to a polyvinylidiene difluoride membrane (Iblot-Invitrogen). The membrane was incubated for 12 h with 5% albumin fraction V (Sigma-aldrich) in 1× Tris based saline supplemented with 0.1% Tween-20 (TBS-T). The membrane was washed three times with TBST and then incubated with Ni-HRP (1:2000) in TBST for 1 h under room temperature with slight agitation. After three washes in TBS-T, the chemilumiscent signal was detected using the enhanced chemiluminescence (ECL) kit from Pierce (Pierce Biotechnology, Rockford, Ill.). […] After three washes in PBST and water, the chemilumiscent signal was detected using the enhanced chemiluminescence (ECL) kit from Pierce (Pierce Biotechnology, Rockford, Ill.).

[2] = target: T2, purified recombinant human HDAC8 from E. coli (Homo sapiens, UniProt Q9BY41); assay: Fluorogenic HDAC inhibition assay, HDAC8 (Fluor de Lys substrate); format: biochemical; settings: 10 μM inhibitor, preincubation 3 h
T2 construct: made in house; host or cells: E. coli
T2 sequence (Q9BY41 1-377): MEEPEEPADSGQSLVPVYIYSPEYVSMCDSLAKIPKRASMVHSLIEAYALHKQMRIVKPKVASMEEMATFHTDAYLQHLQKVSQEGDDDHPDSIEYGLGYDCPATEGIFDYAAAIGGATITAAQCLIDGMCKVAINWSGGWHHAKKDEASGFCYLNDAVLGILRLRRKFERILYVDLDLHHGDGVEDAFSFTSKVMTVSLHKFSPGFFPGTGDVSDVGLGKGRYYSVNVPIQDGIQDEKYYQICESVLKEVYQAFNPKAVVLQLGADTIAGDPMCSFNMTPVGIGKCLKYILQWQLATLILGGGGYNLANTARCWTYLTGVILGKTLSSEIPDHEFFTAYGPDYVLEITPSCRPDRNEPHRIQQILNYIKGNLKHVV
Protocol: as §1

T1 sequence (Q92769 whole entry): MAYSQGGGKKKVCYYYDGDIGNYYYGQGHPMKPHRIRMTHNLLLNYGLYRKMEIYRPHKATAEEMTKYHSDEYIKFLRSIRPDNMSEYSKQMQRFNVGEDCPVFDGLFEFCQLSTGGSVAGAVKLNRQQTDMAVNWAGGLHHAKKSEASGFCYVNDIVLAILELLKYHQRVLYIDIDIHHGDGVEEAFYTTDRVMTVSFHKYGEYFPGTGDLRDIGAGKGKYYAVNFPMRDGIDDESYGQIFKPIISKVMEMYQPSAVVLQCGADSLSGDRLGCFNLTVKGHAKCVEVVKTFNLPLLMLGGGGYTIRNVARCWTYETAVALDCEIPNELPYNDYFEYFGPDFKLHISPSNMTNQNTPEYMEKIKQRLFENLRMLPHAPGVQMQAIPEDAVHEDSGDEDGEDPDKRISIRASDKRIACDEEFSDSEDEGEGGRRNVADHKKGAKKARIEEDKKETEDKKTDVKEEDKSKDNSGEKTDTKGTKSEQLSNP
recombinant His-tagged HDAC2, sequence (Q92769 whole entry): as above

**Q.** With `[N-]=[N+]=NCCOc1ccc(C(=O)Nc2cc(-c3ccccc3)ccc2N)cc1N=[N+]=[N-]` [probe 1e, N-(4-amino-[1,1′-biphenyl]-3-yl)-3-azido-4-(2-azidoethoxy)benzamide] as the compound, how does the IC50 (recombinant human HDAC2) read?
**A.** The IC50 was 830 nM.

**Q.** And the “increase in inhibition of HDAC2 upon preincubation (IC50 ratio)” value (recombinant human HDAC2; preincubation 24 h vs 5 min)?
**A.** Its value is 41 fold.

**Q.** Which IC50 (recombinant human HDAC2) does the source give for `[N-]=[N+]=NCCOc1ccc(C(=O)Nc2cc(-c3cccs3)ccc2N)cc1N=[N+]=[N-]` [probe 1f, N-(2-amino-5-(thiophen-2-yl)phenyl)-3-azido-4-(2-azidoethoxy)benzamide] here?
**A.** The IC50 was 750 nM.

**Q.** For `[N-]=[N+]=NCCC(=O)Nc1ccc(C(=O)Nc2cc(N=[N+]=[N-])ccc2N)cc1` [probe 1g, N-(2-amino-5-azidophenyl)-4-(3-azidopropanamido)benzamide], which “decrease in biotinylation of HDAC2 in the presence of competing ligand” value [1] is on record?
**A.** The value was “slightly less pronounced”.

**Q.** Which “inhibition of HDAC8” value [2] does the source give for `[N-]=[N+]=Nc1cccc(COC(=O)NCc2ccc(C(=O)Nc3cc(-c4ccccc4)ccc3N)cc2)c1` [probe 2a, 3-azidobenzyl 4-((4-amino-[1,1′-biphenyl]-3-yl)carbamoyl)benzylcarbamate] here?
**A.** The value was “inactive”.

**Q.** What about the “inhibition of HDAC8” value ([2]; 10 µM) of the same compound?
**A.** Its value is “did not inhibit”.

Reference: patent US9108943B2, “Photoreactive benzamide probes for histone deacetylase 2” (THE BOARD OF TRUSTEES OF THE UNIVERSITY OF ILLINOIS, priority 2013, dated 2015)
